{"source": "patent US11357770B2", "about": "“Method of treating immunoglobulin light chain amyloidosis” (ALTERITY THERAPEUTICS LIMITED, priority 2016, dated 2022)", "key": {"[1]": {"tested_on": "C. elegans", "experiment": "C. elegans pharyngeal pumping rate (LC-induced pharyngeal dysfunction)", "conditions": "for ROS generation and pumping dysfunction caused by cardiotoxic LC: 2 nM 1033, 50 μM TETRA or 5 mM NAC with 100 μg/mL LC", "protocol": "Worms were fed for 2 h with 100 μg/mL H7-BJ in the absence or presence of 0-25 nM 1033. Control worms received vehicle alone (dotted line). Each value is the mean±SE, n=30. […] (B) Images obtained from the overlay of a contrast phase and MitoSOX fluorescence (arrows). Scale bar 50 μm. (C) The effects of cardiotoxic LC, 1033, cardotoxic LC+1033, H2O2 and H2O2+1033 on pharyngeal function. (D) The effects of Chelex® and EDTA on LC induced pharyngeal dysfunction.\nMM2-BJ (Myeloma) and H7-BJ (Cardiotoxic LC) and in 5 mM PBS, pH 7.4, were administered to worms (100 worms/100 μL) at 100 μg/mL alone or with 50 μM TETRA or 5 mM NAC. Control worms received vehicle alone (Vehicle). After incubation for 2 h in the absence of OP50 E. coli, worms were plated on NGM plates seeded with bacteria.\nBristol N2 strain, transgenic CL2070 dvIs70 Is[hsp-16.2::gfp; rol-6(su1006)], CF1553 muls84 [(pAD76) sod-3p::GFP+rol-6] and TJ356, zls356Is[daf-16::daf-16-gfp; rol-6] were obtained from the Caenorhabditis elegans Genetic Center (CGC, University of Minnesota, USA) and propagated at 20° C. on solid Nematode Growth Medium (NGM) seeded with E. coli OP50 (from CGC) for food. The effect of LC on pharyngeal behaviour was investigated (Diomede et al. 2014). Briefly, ancestral N2 and transgenic CL2070, TJ356 and CF1553 worms were incubated with 100 μg/mL LC listed in Table 1A (100 worms/100 μL) in 5 mM PBS, pH 7.4. Control worms were incubated with 5 mM PBS, pH 7.4 (Vehicle) only. After 2 h of incubation on orbital shaking, worms were transferred onto NGM plates seeded with OP50 E. coli. The pharyngeal pumping rate, measured by counting the number of times the terminal bulb of the pharynx contracted over a 1-minute interval, was scored 20 h later. Experiments were also performed by feeding worms for 2 h with 100 μg/mL of H6-BJ, H7-BJ, H18-BJ, MM2-BJ, MM4-BJ or MM7-BJ alone or with 125 μM copper (as CuSO4).\nThe experimental conditions of Example 4 were repeated with cardiotoxic LC H7-BJ with or without 1033, Chelex® resin or EDTA as well as 1033, H2O2 and H2O2 together with 1033."}, "[2]": {"experiment": "Stability of the drug", "format": "physicochemical"}, "[3]": {"tested_on": "H7-BJ cardiotoxic LC", "experiment": "Amplex Red H2O2 assay", "format": "biochemical, human", "conditions": "100 μg/mL H7-BJ incubated with 2 nM 1033, room temperature", "protocol": "H7-BJ and MM2-BJ proteins (100 μg/mL) in 10 mM sodium phosphate buffer (PB), pH 7.4, were incubated at room temperature in the presence or absence of 50 μM Chelex® resin or 2 nM 5,7-dichloro-8-hydroxy-2-(dimethylaminomethyl)quinoline (1033). Different times after incubation (0-2 h), 2 μL of solutions were put into a 96-well black plate, diluted 1:100 (vol/vol) with 10 mM PBS, pH 7.4, and the amount of H2O2 generated was determined by using the Amplex Red assay kit (Molecular probes, Life Technologies). To this end, 50 μL working solution of 100 μM Amplex Red and 200 mU/mL horseradish peroxidase in 10 mM PB, pH 7.4, was added to each well. The plate was shaken and incubated at room temperature for 30 min, protected from light. The fluorescence was read on a Tecan Infinite M200 microplate reader (Tecan, Austria) at excitation wavelength of 563 nm and emission wavelength of 587 nm. Averages and standard deviations were converted to H2O2 concentrations."}, "[4]": {"tested_on": "DAF-16", "experiment": "DAF-16::GFP nuclear translocation in TJ356 nematodes", "format": "in vivo, Caenorhabditis elegans", "conditions": "100 μg/mL H7-BJ 2 h with 2 nM 1033, 50 μM TETRA or 5 mM NAC", "protocol": "(A) Image of DAF-16::GFP expression in control vehicle-fed and (B) cardiotoxic LC-fed worms (100 μg/mL H7-BJ for 2 h). (C-D) The subcellular distribution of DAF-16 expression in worms fed 2 h: vehicle, 100 μg/mL H7-BJ with or without 2 nM 1033, 50 μM tetracycline (TETRA) or 5 mM N-acetyl-cysteine (NAC). According to DAF-16 localization worms were divided into two phenotypes including “cytosolic” and “nuclear”. The percentage of DAF-16 localization in respect to vehicle fed worms was calculated based on 3 experiments, N=100. Mean±SE. **p<0.01 vs. vehicle, ºp<0.05 and ººp<0.01 vs. cardiotoxic LC, one-way ANOVA and Bonferroni's post hoc test. (E/F) Transgenic worms were fed with 1 mM H2O2 for 30 minutes as a positive control. DAF-16::GFP distribution (E) and HSP-16.2 and SOD-3 expression visualized by GFP-fluorescence (F).\n(§1) DAF-16::green fluorescent protein (GFP) nuclear translocation was evaluated in TJ356 nematodes. Pharyngeal expression of HSP-16.2::GFP and SOD-3::GFP was determined in CL2070 and CF1553 worms, respectively. […] Organisms were scored as positive for nuclear localization when green foci were observed throughout the entire body from head to tail and as cytosolic when DAF-16::GFP was diffuse. The number of worms with each level of translocation were counted (at least 100 worms/condition). […] Average pixel intensity values were calculated by sampling images of different animals. […]"}, "[5]": {"tested_on": "C. elegans N2 worms", "experiment": "C. elegans life span experiments", "format": "in vivo, Caenorhabditis elegans", "protocol": "N2 worms (100 worms/100 μL), at L3 larval stage, were fed for 2 h 100 μg/mL of H7-BJ alone or with 2 nM 1033. Worms were then transferred onto fresh NGM plates seeded with E. coli in the presence of the same drug concentration. Control worms were exposed, under the same conditions, to vehicle alone. After 20 h nematodes were transferred to fresh NGM plates seeded with bacteria and the number of live worms was scored (considered as day 0). To avoid overlapping generations, the worms were then transferred every day, in the absence of fluorodeoxyuridine, until they stopped laying eggs. To test the effect of repeated administration of 1033, worms were fed for 2 h 100 μg/mL of H7-BJ and 2 nM 1033 and then transferred onto fresh NGM plates seeded with E. coli in the presence of the same drug concentration. Then nematodes were transferred every day, in a new NGM plate in the presence of freshly dissolved 2 nM 1033. The number of live worms was determined for each consecutive day until all worms were dead."}, "[6]": {"tested_on": "HSP-16.2", "experiment": "Pharyngeal expression of HSP-16.2::GFP in CL2070 worms", "format": "in vivo, Caenorhabditis elegans", "conditions": "100 μg/mL H7-BJ + 2 nM 1033, CL2070 worms", "protocol": "(§2) Transgenic worms were fed for 2 h with: Vehicle (i, 5 mM PBS, pH 7.4) 100 μg/mL MM2-BJ (ii, Myeloma), 100 μg/mL H7-BJ (iii, Cardiotoxic LC), or 2 nM 1033 (iv, Cardiotoxic LC+ 1033). (A) Images of the HSP-16.2 expression as overlays of GFP-fluorescence and light microscopy in CL2070 transgenic worms. Scale bar 50 μm. (C) Images of SOD-3 expression as GFP-fluorescence (arrows) in CF1553 transgenic worms. Scale bar 50 μm. Quantified GFP intensity in (B) CL2070 and (D) CF1553 worms in response to treatments. Fluorescence intensity in each group was calculated as mean grey value+SE based on 3 experiments, N=25. **p<0.01 vs. Vehicle and ºp<0.05 and ººp<0.01 vs. Cardiotoxic LC, one-way ANOVA and Bonferroni's post hoc test.\nas §1, with “animals. Mean pixel intensity for each experimental group was calculated using Cell-F software (Olympus).” for “animals.”"}, "[7]": {"tested_on": "C. elegans", "experiment": "Endogenous metal levels (Cu, Zn, Fe) in C. elegans", "format": "in vivo, Caenorhabditis elegans", "conditions": "100 μg/mL H7-BJ + 2 nM 1033", "protocol": "FIG. 3 provides graphical representations of endogenous metal levels and the effects of added copper on C. elegans pharyngeal function. Worms fed with 100 μg/mL MM2-BJ (myeloma), 100 μg/mL cardiotoxic LC H7-BJ, cardiotoxic LC+ 2 nM 1033, or metal free water (vehicle) were analysed for the amount of endogenous Cu (A), Zn and Fe (B)."}, "[8]": {"tested_on": "C. elegans", "experiment": "Pharyngeal function, drugs administered after damage by cardiotoxic LC", "format": "in vivo, Caenorhabditis elegans", "conditions": "H7-BJ 1.5 h", "protocol": "Pharyngeal performance of worms fed 100 μg/mL H7-BJ (Cardiotoxic LC) for 1.5 h and then treated for 30 min with 20 µM tetracycline (TETRA), 0.5-2 nM 1033 alone or together with 20 μM TETRA. Control worms fed vehicle alone. **p<0.001, *p<0.005 vs. vehicle, ººp<0.001 vs. Cardiotoxic LC, one-way ANOVA and Bonferroni's post hoc test. §§ p<0.01 significant interaction vs. worms fed Cardiotoxic LC+ 0.5 nM 1033, two-ways ANOVA and Bonferroni's post hoc test.\nTo reflect circumstances most likely encountered in the clinic drugs were administered to worms when the pharynx was already damaged by cardiotoxic LC. […] Then drugs were administered for 30 min and the pumping rate was scored.\nFeeding experiments in which nematodes were fed H7-BJ for 1.5 h to generate pharangeal dysfunction, subsequently 20 μM TETRA, 0.5 nM 1033, 2 nM 1033, 20 μM TETRA and 0.5 nM 1033."}, "[9]": {"tested_on": "SOD-3", "experiment": "Pharyngeal expression of SOD-3::GFP in CF1553 worms", "format": "in vivo, Caenorhabditis elegans", "conditions": "100 μg/mL H7-BJ + 2 nM 1033, CF1553 worms", "protocol": "as §2\nas §1, with “animals. Mean pixel intensity for each experimental group was calculated using Cell-F software (Olympus).” for “animals.”"}}, "note": "Entries after “also recorded” stand apart in the source; their conditions may differ."}
{"smiles": "CN(C)[C@@H]1C(O)=C(C(N)=O)C(=O)[C@@]2(O)C(O)=C3C(=O)c4c(O)cccc4[C@@](C)(O)[C@H]3C[C@@H]12", "note": "[TETRA, tetracycline, reference compound]", "values": [{"measurement": "IC50", "setting": "[1]; Caenorhabditis elegans, read-out: IC50 value of TETRA (pharyngeal dysfunction)", "value": 20, "unit": "µM"}]}
{"smiles": "CN(C)Cc1ccc2c(Cl)cc(Cl)c(O)c2n1", "note": "[compound 1033, 5,7-dichloro-8-hydroxy-2-(dimethylaminomethyl)quinoline]", "values": [{"measurement": "stability under physiological conditions and in a variety of standard solvents", "setting": "[2]", "value": "extremely stable"}, {"measurement": "H2O2 (ROS) production by H7-BJ", "setting": "[3]", "value": "significantly attenuated; also recorded: did prevent the increase"}, {"measurement": "activation (nuclear translocation) of DAF-16 induced by the cardiotoxic LC", "setting": "[4]", "value": "counteracted"}, {"measurement": "median survival", "setting": "[5]; H7-BJ + 2 nM/day 1033 (repeated administration), vehicle 13 days", "value": 13, "unit": "days"}, {"measurement": "protective effect on survival, single dose", "setting": "[5]; single dose of 1033 at 2 nM, H7-BJ-fed worms", "value": "No protective effect"}, {"measurement": "LC-induced HSP-16.2 protein expression in the pharynx", "setting": "[6]", "value": "significantly reduced"}, {"measurement": "cardiotoxic LC-induced elevation of copper levels in worms", "setting": "[7]", "value": "counteracted"}, {"measurement": "pharyngeal impairment caused by all cardiotoxic LC under investigation", "setting": "[1]; 2 nM 1033", "value": "completely abolished"}, {"measurement": "ROS generation and pumping dysfunction caused by cardiotoxic LC", "setting": "[1]", "value": "capable of neutralizing"}, {"measurement": "pumping rate, 1033 alone", "setting": "[1]; 1033 alone, no LC", "value": "did not affect"}, {"measurement": "pharyngeal toxicity induced by exposure to exogenous H2O2", "setting": "[1]; H2O2 + 1033", "value": "did not counteract"}, {"measurement": "maximal recovery of pharangeal function", "setting": "[8]; then 2 nM 1033", "value": 53, "unit": "%"}, {"measurement": "restoring pharangeal function after damage by H7-BJ", "setting": "[8]; then 20 μM TETRA or 0.5 nM 1033 alone", "value": "no effect"}, {"measurement": "restoring pharyngeal function after damage by H7-BJ", "setting": "[8]; then drug 30 min, 2 nM 1033 or 20 μM TETRA", "value": "restoring normal pharyngeal function"}, {"measurement": "LC-induced SOD-3 protein expression in the pharynx", "setting": "[9]", "value": "significantly reduced"}]}
{"smiles": "CC(=O)N[C@@H](CS)C(=O)O", "note": "[NAC, N-acetyl cysteine, reference compound]", "values": [{"measurement": "activation (nuclear translocation) of DAF-16 induced by the cardiotoxic LC", "setting": "[4]", "value": "not observed"}, {"measurement": "ROS generation and pumping dysfunction caused by cardiotoxic LC", "setting": "[1]", "value": "capable of neutralizing"}, {"measurement": "effect on the pharyngeal pumping dysfunction caused by cardiotoxic LC", "setting": "[1]; 100 μg/mL H7-BJ with 50 μM TETRA or 5 mM NAC, pumping 20 h after plating", "value": "protective effect"}]}
